The results in this text go back to patent publication US20210161188A1, “POLYMETHOXYFLAVONES AS SWEETNESS ENHANCERS” (Firmenich SA, priority 2018, published 2021).

Common to all, as to assay type: in vivo, human
Experiment [1] deals with sweetness of a reference water solution containing 4% sucrose (sucrose base). Kind of experiment: Sensory panel of 25 trained panelists, sweet taste modifying effect in 4% sucrose, with nose-clip. The note with it: for enhancement of the sweetness of the sucrose base (in words): 5 ppm; for Significant level Student test (NC) / sweetness, With nose-clip (NC): 5 ppm in 4% sucrose; for Significant level Student test (NC): sweetness, with nose-clip; for sweetness, With nose-clip (NC): scale of −5 (strong masking) to 5 (strong enhancing), 0 = sucrose base. The source says: (§1) The taste of a sample of a composition according to several aspects presented herein, with regard to sweetness and/or sweetness enhancing properties, may be assessed in vivo by using a panel of trained sensory evaluators experienced in the sweet taste estimation procedure, e.g. in the sensory assay described e.g. in Examples 1 and 2, using a test base comprising a 4% sucrose solution, or similar composition.
(§2) In sensory studies, panelists are asked to take a sample of the liquid to be assessed (test substance, e.g. the test base comprising a composition according to several aspects presented herein) into the mouth and after some time allowed for taste perception, to spit the sample out completely. Subsequently, the panelists are asked to rinse their mouth well with water or black tea to reduce any potential carry over effects. The tasting of a sample can be repeated if required.
Sensory Evaluations: A sensory panel consisted of 25 trained panelists. The panelists were asked to evaluate the sweet taste modifying effect of the isolated individual polymethoxyflavones in a reference water solution containing 4% sucrose. The panelists evaluated samples containing TMS, HMQ, NOB, HMF, TAN and SIN (all at 5 ppm), and a mixture comprising a mixture of polymethoxyflavones (PMF mixture at 10 ppm), for taste properties (sweet) on a scale of −5 to 5 (−5 denoted strong masking effect and 5 denoted strong enhancing effect, 0 being the intensity of a reference water solution containing 4% sucrose—referred to herein as the sucrose base).

Experiment [2] has the same test system. Description: Additional sensory evaluation, 8 trained panelists, dose series in 4% sucrose.
Source text: as §1, §2
Additional Sensory Evaluations: A sensory panel consisted of 8 trained panelists. The panelists were asked to evaluate the sweet taste modifying effect of 0.001, 0.1, 1, 2, and 20 ppm of either TMS, HMQ, or NOB in a reference water solution containing 4% sucrose, on a scale of −5 to 5 (−5 denoted strong masking effect and 5 denoted strong enhancing effect, 0 being the intensity of a reference water solution containing 4% sucrose—referred to herein as the sucrose base).

In experiment [3] the test system is sweetness of a reference water solution containing 4% sucrose. Description: Additional sensory evaluation, 8 trained panelists, TMS, HMQ and TMS:HMQ mixtures in different ratio. The following applies: for significance of sweetness enhancement: Low sugar beverage (4% sucrose).
Source text: as §1, §2
A sensory panel consisted of 8 trained panelists. The panelists were asked to evaluate the sweet taste modifying effect of 0.5, 1, 2 ppm of either TMS or HMQ as well as 1, 1.5, 2 ppm of TMS and HMQ mixture in different ratio in a reference water solution containing 4% sucrose.

Experiment [4] concerns sweetness of reduce sugar fruit tea beverage. Kind of experiment: Additional sensory evaluation, 8 trained panelists, fruit tea beverage. On the set-up: significance of sweetness enhancement: key to the marks not given beside the values.
Source text: as §1, §2
Additional Sensory Evaluations: A sensory panel consisted of 8 trained panelists. The panelists were asked to evaluate the sweet taste modifying effect of 0.001, 2 and 20 ppm of PMF mixture and 0.2 ppm of TMS, 0.1 ppm of HMQ, and 0.3 ppm of the mixture of TMS and HMQ at ratio of 2 to 1 in a reference low sugar fruit tea beverage solution as well as standard sugar fruit tea beverage solution.

The mark [5] stands for this setting: at 0.1 and 0.001 ppm in 4% sucrose.
[6] abbreviates: at doses less than or equal to 2 ppm in 4% sucrose.

`COc1ccc(-c2cc(=O)c3c(OC)c(OC)c(OC)c(OC)c3o2)cc1OC` [NOB, 5,6,7,8,3′,4′-hexamethoxyflavone, reference compound]: in experiment [1], the “enhancement of the sweetness of the sucrose base (in words)” value (from here on “enhancement of the sweetness … (in words)”) is recorded as “significantly enhance the sweetness of the sucrose base”; the “Significant level Student test (NC)” value is “++”; the “sweetness, With nose-clip (NC)” value is reported as 0.37. Besides, in experiment [2] (0.001 ppm in 4% sucrose), the “significance of sweetness enhancement” value is “++”. Moreover, in experiment [2] (0.001 to 20 ppm in 4% sucrose, in contrast to TMS and HMQ), the “sweetness enhancing properties (in words)” value is recorded as “less significant”. Besides, in experiment [2] (1 ppm in 4% sucrose), the “significance of sweetness enhancement” value was “++”. In addition, the “significance of sweetness enhancement” value in experiment [2] (20 ppm in 4% sucrose) is recorded as “++”.

With `COc1ccc(-c2oc3c(OC)c(OC)c(OC)c(OC)c3c(=O)c2OC)cc1OC` [HMF, 3,5,6,7,8,3′,4′-heptamethoxyflavone], in experiment [1], the “enhancement of the sweetness … (in words)” value is “Neither HMF, nor SIN had any observable enhancement of sweetness” and the “sweetness, With nose-clip (NC)” value came out at 0.21.

With `COc1ccc(-c2oc3cc(OC)c(OC)c(OC)c3c(=O)c2OC)cc1OC` [HMQ, 3,5,6,7,3′,4′-hexamethoxyflavone], the “enhancement of the sweetness … (in words)” value in experiment [1] is reported as “significantly enhance the sweetness of the sucrose base”. Also, the “Significant level Student test (NC)” value in experiment [1] is listed as “++”. Further, the “sweetness, With nose-clip (NC)” value in experiment [1] is reported as 0.57. The “significance of sweetness enhancement” value is “+++” in experiment [2] (0.001 ppm in 4% sucrose); “++” in experiment [2] (0.1 ppm in 4% sucrose); “++” in experiment [2] (2 ppm in 4% sucrose); “++” in experiment [3] (0.5 ppm); “++” in experiment [3] (2 ppm). The “sweetness enhancement effect (in words)” value in experiment [2] (setting [5]) was “significant sweetness enhancement effect”; in experiment [2] (setting [6]), “better sweetness enhancement effect”; in experiment [3] (1 ppm), “did not show any observable sweetness enhancement effect”; in experiment [4] (0.1 ppm in reduce sugar fruit tea beverage), “did not show the sweetness enhancement effect”.

With `COc1ccc(-c2cc(=O)c3c(OC)c(OC)c(OC)cc3o2)cc1` [TMS, 5,6,7,4′-tetramethoxyflavone], the “enhancement of the sweetness … (in words)” value in experiment [1] is on record as “significantly enhance the sweetness of the sucrose base”. Besides, in experiment [1], the “Significant level Student test (NC)” value was “++”. Besides, in experiment [1], the “sweetness, With nose-clip (NC)” value is 0.55. Besides, the “significance of sweetness enhancement” value in experiment [2] (0.001 ppm in 4% sucrose) is listed as “++”; in experiment [2] (0.1 ppm in 4% sucrose), “++”; in experiment [2] (1 ppm in 4% sucrose) it was “++”; in experiment [2] (2 ppm in 4% sucrose) it was “+”; in experiment [3] (1 ppm), “++”; in experiment [3] (2 ppm) it was “+”. In addition, the “significance of sweetness enhancement” value in experiment [4] (+0.2 ppm in reduce sugar fruit tea beverage) was “++”. Besides, the “sweetness enhancement effect (in words)” value in experiment [2] (setting [5]) was “significant sweetness enhancement effect”; in experiment [2] (setting [6]), “better sweetness enhancement effect”.

For the compound `COc1ccc(-c2cc(=O)c3c(OC)c(OC)c(OC)c(OC)c3o2)cc1` [TAN, 5,6,7,8,4′-pentamethoxyflavone], in experiment [1], the “enhancement of the sweetness … (in words)” value was “negative effect of sweetness”; the “Significant level Student test (NC)” value was “−”; the “sweetness, With nose-clip (NC)” value was −0.30.

For the compound `COc1ccc(-c2cc(=O)c3c(OC)c(OC)c(OC)cc3o2)cc1OC` [SIN, 5,6,7,3′,4′-pentamethoxyflavone], in experiment [1], the “enhancement of the sweetness … (in words)” value is listed as “Neither HMF, nor SIN had any observable enhancement of sweetness” and the “sweetness, With nose-clip (NC)” value was 0.17.
